Bounds are passed on as bounds.

We go through 4 compounds from patent publication US20230192700A1, “PYRAZOLOPYRAZINES ACTING ON CANCERS VIA INHIBITION OF CDK12” (Bayer Aktiengesellschaft, priority 2020, published 2023).

T1 sequence (Q9NYV4 with tags, fused parts or gaps): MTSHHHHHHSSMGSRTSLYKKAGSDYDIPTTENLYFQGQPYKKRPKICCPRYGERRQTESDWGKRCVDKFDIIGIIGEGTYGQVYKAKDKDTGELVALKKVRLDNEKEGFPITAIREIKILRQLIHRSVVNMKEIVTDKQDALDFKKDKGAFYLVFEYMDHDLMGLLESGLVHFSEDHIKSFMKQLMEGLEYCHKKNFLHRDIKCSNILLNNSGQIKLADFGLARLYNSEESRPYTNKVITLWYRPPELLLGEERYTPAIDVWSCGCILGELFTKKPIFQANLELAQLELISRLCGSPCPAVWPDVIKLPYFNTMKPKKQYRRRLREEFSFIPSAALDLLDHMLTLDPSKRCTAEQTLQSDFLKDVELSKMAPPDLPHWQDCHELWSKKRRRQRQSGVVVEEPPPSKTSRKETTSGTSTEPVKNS
T1 sequence (O75909 with tags, fused parts or gaps partner limits assumed): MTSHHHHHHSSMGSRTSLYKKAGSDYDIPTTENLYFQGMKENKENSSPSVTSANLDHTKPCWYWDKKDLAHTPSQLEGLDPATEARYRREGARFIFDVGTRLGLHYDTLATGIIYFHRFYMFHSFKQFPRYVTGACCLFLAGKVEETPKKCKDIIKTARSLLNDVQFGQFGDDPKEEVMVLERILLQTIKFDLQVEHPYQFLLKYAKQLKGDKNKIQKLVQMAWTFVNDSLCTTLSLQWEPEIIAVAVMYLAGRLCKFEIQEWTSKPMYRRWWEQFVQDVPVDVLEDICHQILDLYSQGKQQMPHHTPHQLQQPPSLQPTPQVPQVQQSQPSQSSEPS

The test has as its target T1, CDK12/CyclinK (Homo sapiens, UniProt Q9NYV4).
T1 construct: His-CDK12 (aa Q696-S1082); made in house; host or cells: Hi-5 insect cells (baculovirus co-infection with CycK and yeast CAK1)
Description: CDK12/CycK high ATP kinase assay (TR-FRET). In kind it is biochemical. The following applies: 2 mM ATP (high ATP); median; read-out: CDK12/CyclinK, 2 mM ATP (high ATP), IC50 - [mol/l] (median). The method, boiled down:
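Human His-tagged CDK12/CycK (about 0.75 nM) preincubated with compound 15 min, then reacted 60 min at 22 °C with 2 mM ATP and 1 µM biotinylated peptide in HEPES pH 7.5 buffer. Phospho-Ser62 c-Myc epitope detected by TR-FRET (665/620 nm ratio); data normalised to no-inhibitor and no-enzyme controls.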
On to `OCC1(Cn2nc(NCc3nc4ccccc4[nH]3)c3ncc(C4CC4)nc32)CCC1` [Example 74, {1-[(3-{[(1H-benzimidazol-2-yl)methyl]amino}-6-cyclopropyl-1H-pyrazolo[3,4-b]pyrazin-1-yl)methyl]cyclobutyl}methanol], for which the IC50 was greater than 10 µM. With `c1ccc2[nH]c(CNc3nn(CC4CCC4)c4nc(C5CC5)cnc34)nc2c1` [Example 75, N-[(1H-benzimidazol-2-yl)methyl]-1-(cyclobutylmethyl)-6-cyclopropyl-1H-pyrazolo[3,4-b]pyrazin-3-amine] the figure was greater than 20 µM; with `CC(C)(O)CCn1nc(NCc2nc3ccccc3[nH]2)c2ncc(C3CC3)nc21` [Example 76, 4-(3-{[(1H-benzimidazol-2-yl)methyl]amino}-6-cyclopropyl-1H-pyrazolo[3,4-b]pyrazin-1-yl)-2-methylbutan-2-ol], greater than 20 µM. Next, `Cc1cnc2c(NCc3nc4ccccc4[nH]3)nn(C3CCN(C)CC3)c2n1` [Example 77, N-[(1H-benzimidazol-2-yl)methyl]-6-methyl-1-(1-methylpiperidin-4-yl)-1H-pyrazolo[3,4-b]pyrazin-3-amine]: greater than 20 µM.
